Assay results reported in patent US20050244413A1, “Compositions and methods for treating cancer using cytotoxic CD44 antibody immunoconjugates and chemotherapeutic agents” (priority 2002, published 2005).
“And” between values parts separate entries of the source, which are not always exact repeats. Equal entries are not always repeated. Where two headings read alike, the source gives them in different places.

How the values were obtained:
[1] = test system: FaDu tumors; assay: BIWI 1 monotherapy in FaDu xenografted nude mice; format: in vivo, mouse; settings: five consecutive days
Procedure: (§1) In vivo anti-tumor efficacy of BIWI 1 was tested in three nude mouse xenograft models applying antigen-positive human tumors: A431 (ATCC # CRL 1555; epidermoid carcinoma of the vulva), FaDu (ATCC # HTB 43; squamous cell carcinoma of the pharynx), and MDA-MB 453 (ATCC # HTB-131; breast carcinoma). The cells were received from ATCC and cultured in RPMI1640 medium containing 10% fetal calf serum and supplements. 1×10^6 tumors cells were transplanted subcutaneously into the right flank of 6 week old female NMRI-nu/nu mice. Tumor growth was monitored by measuring tumor size. A tumor response was rated as complete response when the tumor completely disappeared at any time after start of treatment. The response was rated as partial response when the tumor volume decreased after treatment but thereafter started regrowing. The tolerability of the treatment was monitored by measuring mouse weight during the observation period.
Mice were randomised into the following treatment groups (treatment/initial mean tumor volume/tumor volume range/number of mice): • Group 1: Control (PBS)/142±82 mm^3/34-268 mm^3 /8 mice. • Group 2: BIWA 4 (21 mg/kg/d)/134±86 mm^3/42-268 mm^3/6 mice. • Group 3: BIWI 1 (2.1 mg/kg/d) 149±96 mm^3/50-268 mm^3/6 mice. • Group 4: BIWI 1 (7 mg/kg/d)/132±97 mm^3 42-268 mm^3/6 mice. • Group 5: BIWI 1 (21 mg/kg/d)/129±74 mm^3/50-231 mm^3/6 mice.
Groups of 6 mice were treated with 2.1 mg/kg/d BIWI 1, 7 mg/kg/d BIWI 1, 21 mg/kg/d BIWI 1, and 21 mg/kg/d control antibody, respectively. Treatment consisted of i.v. injections of BIWI 1 given on five consecutive days, starting at day 1. […] The remaining 2 tumors grew similar to untreated control tumors.

[2] = test system: MDA-MB-453 tumors; assay: BIWI 1 combination with doxorubicin in nude mice xenografted with MDA-MB-453 tumors; format: in vivo, mouse
Procedure: Similar experiments as outlined under Section 2.6 were undertaken in a human breast carcinoma xenograft model. Experiments were performed using nude mice xenografted subcutaneously with the human breast carcinoma cell line MDA-MBA53. […] The efficacy of these combinations was compared to those of the respective monotherapies by i) analysing the tumor volumes over time and ii) by determining the time for tumors to reach a certain size (tumor growth delay).
The dilutions were prepared freshly for each application or stored at +4° C. during the whole treatment period. […] Doxorubicin (Doxorubicin “Ebewe”®, 2 mg/ml) was diluted in PBS. 200 μl of solutions with different concentrations were injected into the tail vein. Docetaxel (Taxotere®, Aventis, 10 mg/ml) was diluted in 0.9% NaCl. 200 μl of solutions with different concentrations were injected into the tail vein.
The xenograft model was handled slightly different as outlined under Section 2.1. Briefly, 1×10^7 MDA-MB-453 cells (ATCC No. HTB-131) were injected into the mammary fat pad of female NMRI nu/nu mice. After reaching a volume of approximately 1000 mm^3 tumors were excised, cut into 4×4 mm pieces and passaged further subcutaneously. Tumor fragments were cryoconserved in 90% RPMI 1640/10% dimethylsulfoxide (slow freezing process down to −80° C., storage in liquid nitrogen). For further passaging, frozen tumor fragments were thawed, washed 3 times in PBS and implanted subcutaneously into the right and left flanks of a 4-5 female NMRI nu/nu mice. Tumors of these mice were then used to prepare the animals for a therapy experiment. Tumors were excised with a size of approximately 10 mm in diameter, cut into 2×2 mm pieces and implanted subcutaneously into the right flank of 6-8 week old female NMRI nu/nu mice. Approximately twice as many animals as needed for the experiment were prepared. When tumors reached a size of 5-10 mm in diameter (10-14 days after implantation), animals were randomised and treatments were started. Animals were obtained from Harlan (Germany) or M&B (Denmark). Tumor sizes and body weights were recorded as described in Section 2.7.

[3] = test system: mouse CD44v6; assay: Cross-reactivity with mouse CD44v6; format: binding
[4] = test system: antigen-positive cell line FaDu; assay: In vitro cytotoxicity, MTS/PMS cell proliferation assay, FaDu; format: cell-based, human; settings: FaDu cells, 4 days exposure
Procedure: (§2) For determination of viable cells the Cell Titer 96® AQueous non-radioactive cell proliferation assay (Promega) was used. Five thousand cells per well were seeded into 96-well plates in 90 μl medium without phenole red. Cells were allowed to settle down for 1 to 3 h and then serial dilutions of the immunoconjugate in 10 μl PBS were added. Cells without immunoconjugate served as negative control. Cells were incubated for 4 days at 37° C. in a humified 5% CO2 atmosphere and then 20 μl MTS/PMS were added according to the manufacturer's recommendation. After additional 1 to 4 h incubation at 37° C. the absorbance at 490 nm was recorded using an ELISA plate reader. For each cell line triplicates were analyzed. The percentage of the surviving cell fraction and the IC50 value were calculated using the GraphPad Prism® (Version 3.0) software.
(§3) The in vitro cytotoxicity of BIWI 1 was evaluated using the antigen-positive cell lines A431 and FaDu, and the antigen-negative cell line […]. Cells were exposed to different concentrations of BIWI 1 for 4 days, then stained with MTS/PMS and assayed on an ELISA plate reader. The surviving fractions of cells were then calculated using the GraphPad Prism® software package.

[5] = test system: antigen-positive A431 cells; assay: In vitro cytotoxicity, MTS/PMS cell proliferation assay, A431; format: cell-based, human; settings: 4 days exposure
Procedure: as §2, §3

[6] = test system: breast carcinoma xenografts; assay: BIWI 1 (five daily doses) combination with paclitaxel in human breast carcinoma xenograft model; format: in vivo, mouse
Procedure: BIWI was given i.v. into the tail vein at doses of 50 μg DM1/kg/day or 100 μg DM1/kg/day for five consecutive days. Paclitaxel (Taxol®) was given i.v. at 20 or 10 mg/kg, doxorubicin (Adriamycin®) at 6 or 4 mg/kg only on the first day of the treatment period, in each case 4 hours after BIWI 1 treatment. In mice bearing breast carcinoma xenografts with a volume of approximately 100 mm3.

[7] = Tolerability of BIWI 1 monotherapy in nude mice (mouse weight); format: in vivo; settings: FaDu xenografted mice, 21 mg/kg/d BIWI 1
Procedure: as §1
The tolerability of BIWI 1 monotherapy was determined by monitoring mouse weight during the whole duration of the experiment in the 2 models. The maximum observed average weight loss per group was 6% in FaDu xenografted mice treated with 21 mg/kg/d BIWI 1 (FIG. 5). The weight loss started around day 3 of treatment and lasted until day 10, thereafter animals regained weight and behaved similar as control animals. […]

[8] = test system: antigen-positive FaDu cells; assay: In vitro binding to FaDu cells (FACS); settings: 1 hour on ice, FITC-labeled anti-human IgG, read-out: apparent KD
Procedure: The binding of BIWA 4 antibody and BIWI 1 conjugate to antigen-positive FaDu cells was determined. Cells ([…]) were incubated in 96-well plates with varying concentrations of antibody or conjugate on ice for 1 hour. The test article was washed from the plate and FITC-labeled anti-human IgG was added and the incubation on ice was continued in the dark for 1 hour. After washing, the cells were fixed with 1% paraformaldehyde and analyzed on a fluorescence activated cell sorter (FACS).

[9] = test system: MDA-MB-453 tumors; settings: BIWI 1 75 μg/kg DM1 i.v. q7dx4
Procedure: Experiments were performed using nude mice xenografted subcutaneously with the human breast carcinoma cell line MDA-MBA53. […] The efficacy of these combinations was compared to those of the respective monotherapies by i) analysing the tumor volumes over time and ii) by determining the time for tumors to reach a certain size (tumor growth delay).
The dilutions were prepared freshly for each application or stored at +4° C. during the whole treatment period. […] 200 μl of solutions with different concentrations were injected into the tail vein. Docetaxel (Taxotere®, Aventis, 10 mg/ml) was diluted in 0.9% NaCl. 200 μl of solutions with different concentrations were injected into the tail vein.
Briefly, 1×10^7 MDA-MB-453 cells (ATCC No. HTB-131) were injected into the mammary fat pad of female NMRI nu/nu mice. After reaching a volume of approximately 1000 mm^3 tumors were excised, cut into 4×4 mm pieces and passaged further subcutaneously. Tumor fragments were cryoconserved in 90% RPMI 1640/10% dimethylsulfoxide (slow freezing process down to −80° C., storage in liquid nitrogen). For further passaging, frozen tumor fragments were thawed, washed 3 times in PBS and implanted subcutaneously into the right and left flanks of a 4-5 female NMRI nu/nu mice. Tumors of these mice were then used to prepare the animals for a therapy experiment. Tumors were excised with a size of approximately 10 mm in diameter, cut into 2×2 mm pieces and implanted subcutaneously into the right flank of 6-8 week old female NMRI nu/nu mice. Approximately twice as many animals as needed for the experiment were prepared. When tumors reached a size of 5-10 mm in diameter (10-14 days after implantation), animals were randomised and treatments were started. Animals were obtained from Harlan (Germany) or M&B (Denmark). Tumor sizes and body weights were recorded as described in Section 2.7.

## BIWI 1
[1]; 2.1 mg/kg/d BIWI 1 i.v.
  tumor volume doubling time: approximately 5 days
[1]; 7 mg/kg/d BIWI 1 i.v.
  complete responses: 1/6
  partial responses: 3/6
[1]; 21 mg/kg/d BIWI 1 i.v.
  day on which tumors disappeared: ~24 days
  tumor regrowth until end of observation period (day 107): No tumor regrowth
  tumor response: all tumors responded completely
[2]; BIWI 1 50 μg/kg DM1 i.v. q7dx4
  GDF4: 1.0
  T/C (d13): 68%
[2]; BIWI 1 75 μg/kg DM1 i.v. q7dx4
  GDF4: 1.6
  T4T: 13 days and 13.0 days
  T/C (d13): 59%
[2]; BIWI 1 100 μg/kg DM1, q7dx4
  tumor bearing animals cured: 4/6
[3]
  cross-reaction with mouse CD44v6: does not cross-react
[4]
  IC50: ~24 nM
[5]
  IC50: ~76 nM
[6]; BIWI 1 monotherapy 50 μg DM1/kg/day i.v., five consecutive days
  complete tumor regressions: 2/12
[6]; BIWI 1 monotherapy 50 μg DM1/kg/day x5
  T/C (median relative tumor volumes of treated versus control groups): 19%
[6]; BIWI 1 monotherapy 100 μg DM1/kg/day i.v., five consecutive days, tumors approx. 100 mm3
  Complete Regression: 12/12
[7]
  maximum observed average weight loss per group: 6%
[8]
  Kd: 1.8 nM
[9]
  GDF4: 1.3
  T4T: 14 days and 14.1 days
  T/C (d 16): 75%
